Like-named read-outs stand apart in the source and are kept apart here.
Key:
Assay type in all cases: biochemical
Btk = target: T1, Btk (Homo sapiens, UniProt Q06187); assay: Btk in vitro inhibitory activity (one of Method A TR-FRET, Method B electrophoretic mobility shift, Method C radiometric filter binding)
T1 construct: purified from insect cells as a full-length construct containing a N-terminal 6X-His tag; His6 (N); made in house; host or cells: insect cells (Method C)
In short: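 Method A: TR-FRET with 0.5 nM Btk at [ATP]=Km, EDTA-quenched, 665/615 nm ratio; Ki(app) converted to IC50. Method B: 1 nM full-length His6 human BTK, 1 μM FAM peptide, pH 7.5, mobility-shift product/sum ratio, 12-point 4-parameter fit. Method C: radiometric filter binding, 8 nM His-tagged BTK, 0.2 mg/mL poly-Glu-Tyr.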

TEC = target: T2, TEC (Homo sapiens, UniProt P42680); assay: Inhibition of a panel of kinases (in vitro HotSpot kinase assay, 33P-ATP, 1 μM ATP); details: for IC50: HotSpot kinase assay, 1 μM ATP; for TEC/Btk: ratio of TEC IC50 to Btk IC50 (selectivity)
T2 sequence (P42680 1-631): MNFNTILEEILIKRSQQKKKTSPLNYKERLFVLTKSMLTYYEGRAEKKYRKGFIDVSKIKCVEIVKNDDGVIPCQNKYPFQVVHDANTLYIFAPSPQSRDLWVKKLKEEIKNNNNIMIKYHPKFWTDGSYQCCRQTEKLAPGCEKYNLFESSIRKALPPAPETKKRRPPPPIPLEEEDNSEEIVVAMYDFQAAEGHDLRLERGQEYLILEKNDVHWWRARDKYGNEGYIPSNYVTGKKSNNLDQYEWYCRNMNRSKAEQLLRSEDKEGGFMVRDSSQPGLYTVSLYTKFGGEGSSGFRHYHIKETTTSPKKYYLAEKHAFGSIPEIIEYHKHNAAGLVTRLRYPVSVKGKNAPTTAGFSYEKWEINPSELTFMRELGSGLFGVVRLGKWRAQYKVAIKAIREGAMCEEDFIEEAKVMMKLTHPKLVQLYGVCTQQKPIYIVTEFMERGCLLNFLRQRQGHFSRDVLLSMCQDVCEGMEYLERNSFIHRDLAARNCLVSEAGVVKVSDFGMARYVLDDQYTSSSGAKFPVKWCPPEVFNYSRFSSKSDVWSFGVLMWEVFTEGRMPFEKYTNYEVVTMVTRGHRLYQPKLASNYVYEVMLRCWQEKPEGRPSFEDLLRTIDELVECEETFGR
In short: (§1)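 Purified kinase enzymes were incubated with an appropriate substrate and 33P-labelled ATP at 1 μM ATP. Inhibition was measured radiometrically from incorporation of the 33P label.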

panel of kinases = target: T3, panel of kinases (Homo sapiens, UniProt P51813); assay: Inhibition of a panel of kinases (in vitro HotSpot kinase assay, 33P-ATP, 1 μM ATP), other kinases; details: BMX wild-type, read-out: BMX-WT IC50
T3 sequence (P51813 1-675): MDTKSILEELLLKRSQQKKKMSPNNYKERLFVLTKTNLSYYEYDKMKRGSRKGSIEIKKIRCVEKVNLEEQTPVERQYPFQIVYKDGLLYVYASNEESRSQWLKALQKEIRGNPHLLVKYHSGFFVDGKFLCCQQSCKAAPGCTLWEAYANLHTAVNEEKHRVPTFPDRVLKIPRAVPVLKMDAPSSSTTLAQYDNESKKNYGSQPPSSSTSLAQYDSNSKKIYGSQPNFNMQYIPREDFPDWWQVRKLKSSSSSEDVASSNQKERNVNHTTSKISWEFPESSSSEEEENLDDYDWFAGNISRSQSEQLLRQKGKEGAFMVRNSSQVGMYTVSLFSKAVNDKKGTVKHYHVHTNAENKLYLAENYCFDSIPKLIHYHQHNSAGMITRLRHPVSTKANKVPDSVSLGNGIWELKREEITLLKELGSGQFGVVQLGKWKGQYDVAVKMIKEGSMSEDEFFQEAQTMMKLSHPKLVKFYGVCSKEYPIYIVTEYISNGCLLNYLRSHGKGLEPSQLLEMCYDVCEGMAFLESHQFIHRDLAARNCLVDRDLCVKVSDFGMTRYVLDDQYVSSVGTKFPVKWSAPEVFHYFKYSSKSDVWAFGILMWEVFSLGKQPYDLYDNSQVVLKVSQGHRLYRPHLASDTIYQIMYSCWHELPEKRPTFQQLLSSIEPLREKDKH
In short: as §1

[1] = wild-type Btk, read-out: Btk-WT IC50
[2] = method is one of A, B or C, not stated which, read-out: IC50 values against Btk

T1 sequence (Q06187 whole entry): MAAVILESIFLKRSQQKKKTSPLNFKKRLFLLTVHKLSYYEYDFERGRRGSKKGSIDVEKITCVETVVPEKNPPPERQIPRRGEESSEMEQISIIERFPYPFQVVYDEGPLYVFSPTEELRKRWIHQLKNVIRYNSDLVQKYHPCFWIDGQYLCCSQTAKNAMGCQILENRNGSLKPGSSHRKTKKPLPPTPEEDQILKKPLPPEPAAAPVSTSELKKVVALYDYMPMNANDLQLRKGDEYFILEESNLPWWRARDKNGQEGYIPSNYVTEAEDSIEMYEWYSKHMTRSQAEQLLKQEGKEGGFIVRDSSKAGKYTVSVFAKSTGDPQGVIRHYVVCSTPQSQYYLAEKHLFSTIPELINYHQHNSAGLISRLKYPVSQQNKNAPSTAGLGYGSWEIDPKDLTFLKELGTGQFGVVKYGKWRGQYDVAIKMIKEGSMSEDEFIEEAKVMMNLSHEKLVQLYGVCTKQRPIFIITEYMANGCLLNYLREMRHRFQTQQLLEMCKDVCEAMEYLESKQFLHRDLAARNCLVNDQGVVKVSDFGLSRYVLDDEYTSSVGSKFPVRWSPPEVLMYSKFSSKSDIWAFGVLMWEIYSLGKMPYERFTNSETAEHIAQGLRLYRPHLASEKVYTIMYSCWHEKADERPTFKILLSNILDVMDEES

| SMILES | IC50 (Btk; [1]) [nM] | IC50 (TEC) [nM] | IC50 (panel of kinases) [nM] | TEC/Btk (TEC) | IC50 (Btk; [2]) [nM] |
| --- | --- | --- | --- | --- | --- |
| C=CC(=O)N1CC[C@@H](Nc2n[nH]c3nccc(-c4ccc(CNC(=O)c5nc(C(C)(C)C)n[nH]5)c(F)c4)c23)C1 [Example 82, 3-tert-butyl-N-{[2-fluoro-4-(3-{[(3R)-1-(prop-2-enoyl)pyrrolidin-3-yl]amino}-1H-pyrazolo[3,4-b]pyridin-4-yl)phenyl]methyl}-1H-1,2,4-triazole-5-carboxamide] | 30.6 | 357 | 113 | 12 |  |
| Cn1c(C(=O)NCc2ccc(-c3ccnc4[nH]nc(N[C@@H]5CCNC5)c34)cc2F)cc2c1CC(C)(C)C2 [Example 157, N-{[2-fluoro-4-(3-{[(3R)-pyrrolidin-3-yl]amino}-1H-pyrazolo[3,4-b]pyridin-4-yl)phenyl]methyl}-1,5,5-trimethyl-1H,4H,5H,6H-cyclopenta[b]pyrrole-2-carboxamide] | > 10000 | > 10000 | > 10000 |  |  |
| CC(C)c1nc(C(=O)NCc2ccc(-c3ccnc4[nH]nc(N5CC[C@@H](N)C5)c34)cc2F)co1 [Example 357, N-[(4-{3-[(3R)-3-aminopyrrolidin-1-yl]-1H-pyrazolo[3,4-b]pyridin-4-yl}-2-fluorophenyl)methyl]-2-(propan-2-yl)-1,3-oxazole-4-carboxamide] | 31 | 4880 | 1770 |  |  |
| CC(C)(C)c1nc(C(=O)NCc2ccc(-c3ccnc4[nH]nc(N[C@@H]5CCCN(C=O)C5)c34)cc2F)no1 [Example 90, 5-tert-butyl-N-{[2-fluoro-4-(3-{[(3R)-1-formylpiperidin-3-yl]amino}-1H-pyrazolo[3,4-b]pyridin-4-yl)phenyl]methyl}-1,2,4-oxadiazole-3-carboxamide] | 9.44 | 2250 | 2620 | 238 | < 10 |
| C=CC(=O)N[C@@H]1CCN(c2n[nH]c3nccc(-c4ccc(CNC(=O)c5nc(C(C)(C)C)no5)c(F)c4)c23)C1 [Example 331, 3-tert-butyl-N-{[2-fluoro-4-(3-{(3R)-3-[(prop-2-enoyl)amino]pyrrolidin-1-yl}-1H-pyrazolo[3,4-b]pyridin-4-yl)phenyl]methyl}-1,2,4-oxadiazole-5-carboxamide] | 0.0353 | 30 | 33.2 |  |  |
| C=CC(=O)N1CC[C@@H](Nc2n[nH]c3nccc(-c4ccc(CNC(=O)c5ccc(C6CC6)cc5)c(F)c4)c23)C1 [Compound 40, 4-cyclopropyl-N-{[2-fluoro-4-(3-{[(3R)-1-(prop-2-enoyl)pyrrolidin-3-yl]amino}-1H-pyrazolo[3,4-b]pyridin-4-yl)phenyl]methyl}benzamide] | 1.27 | 47 | 54 | 37 |  |
| C[C@@H](NC(=O)c1nc(C(C)(C)C)no1)c1ccc(-c2ccnc3[nH]nc(NC4CCCC4)c23)cc1 [Example 201, 3-tert-butyl-N-[(1R)-1-{4-[3-(cyclopentylamino)-1H-pyrazolo[3,4-b]pyridin-4-yl]phenyl}ethyl]-1,2,4-oxadiazole-5-carboxamide] | 10.2 | 8340 | 6700 | 818 |  |
| CC1(C(=O)N2CC[C@@H](Nc3n[nH]c4nccc(-c5ccc(C6(NC(=O)c7noc(C(C)(C)C)n7)CC6)cc5)c34)C2)COC1 [Compound 30, (R)-5-(tert-butyl)-N-(1-(4-(3-((1-(3-methyloxetane-3-carbonyl)pyrrolidin-3-yl)amino)-1H-pyrazolo[3,4-b]pyridin-4-yl)phenyl)cyclopropyl)-1,2,4-oxadiazole-3-carboxamide] | 254 |  | 6750 | 39 |  |

Now from value to compound:

| IC50 (Btk; [1]) [nM] | IC50 (TEC) [nM] | IC50 (panel of kinases) [nM] | TEC/Btk (TEC) | IC50 (Btk; [2]) [nM] | SMILES |
| --- | --- | --- | --- | --- | --- |
| 1.05 | 239 | 119 |  |  | C=CC(=O)N1CC[C@@H](Nc2n[nH]c3nccc(-c4ccc([C@H](C)NC(=O)c5noc(C(C)(C)C)n5)c(F)c4)c23)C1 [Example 303, 5-tert-butyl-N-{(1S)-1-[2-fluoro-4-(3-{[(3R)-1-(prop-2-enoyl)pyrrolidin-3-yl]amino}-1H-pyrazolo[3,4-b]pyridin-4-yl)phenyl]ethyl}-1,2,4-oxadiazole-3-carboxamide] |
| 13.8 | 2970 | 1890 | 215 |  | CC(C)(C)c1ccc(C(=O)NCc2ccc(-c3ccnc4[nH]nc(N5CC[C@@H](N)C5)c34)cc2F)cc1 [Example 100, N-[(4-{3-[(3R)-3-aminopyrrolidin-1-yl]-1H-pyrazolo[3,4-b]pyridin-4-yl}-2-fluorophenyl)methyl]-4-tert-butylbenzamide] |
| 8.87 | 475 | 226 | 54 | < 10 | C=CC(=O)N1CC[C@@H](Nc2n[nH]c3nccc(-c4ccc(CC(=O)Nc5noc(C(C)(C)C)n5)c(F)c4)c23)C1 [Example 135, N-(5-tert-butyl-1,2,4-oxadiazol-3-yl)-2-[2-fluoro-4-(3-{[(3R)-1-(prop-2-enoyl)pyrrolidin-3-yl]amino}-1H-pyrazolo[3,4-b]pyridin-4-yl)phenyl]acetamide] |
| 1.89 | 167 | 66 | 88 | < 10 | CC#CC(=O)N1CC[C@@H](Nc2n[nH]c3nccc(-c4ccc(CNC(=O)c5ccc(C(F)(F)F)cc5)c(F)c4)c23)C1 [Example 110, N-{[4-(3-{[(3R)-1-(but-2-ynoyl)pyrrolidin-3-yl]amino}-1H-pyrazolo[3,4-b]pyridin-4-yl)-2-fluorophenyl]methyl}-4-(trifluoromethyl)benzamide] |
| 3.41 | 2680 | 496 |  | < 10 | C=CC(=O)N[C@H]1CC[C@H](Nc2n[nH]c3nccc(-c4ccc(CNC(=O)c5noc(C(C)(C)C)n5)c(F)c4)c23)CC1 [Example 152, 5-tert-butyl-N-{[2-fluoro-4-(3-{[(1r,4r)-4-(prop-2-enamido)cyclohexyl]amino}-1H-pyrazolo[3,4-b]pyridin-4-yl)phenyl]methyl}-1,2,4-oxadiazole-3-carboxamide] |
| 4.43 | 340 | 95.7 |  |  | C=CC(=O)N1CC[C@@H](Nc2n[nH]c3nccc(-c4ccc(CNC(=O)c5ccc6c(c5)OCCCO6)c(F)c4)c23)C1 [Example 351, (R)-N-{[2-fluoro-4-(3-{[1-(prop-2-enoyl)pyrrolidin-3-yl]amino}-1H-pyrazolo[3,4-b]pyridin-4-yl)phenyl]methyl}-3,4-dihydro-2H-1,5-benzodioxepine-7-carboxamide] |
| > 10000 | > 10000 | 6470 |  |  | CC(C)(C)c1ccc(C(=O)NC2(c3ccc(-c4ccnc5[nH]nc(N[C@H]6CC[C@H](O)CC6)c45)cc3)CC2)cc1 [Compound 22, 4-tert-butyl-N-{1-[4-(3-{[(1r,4r)-4-hydroxycyclohexyl]amino}-1H-pyrazolo[3,4-b]pyridin-4-yl)phenyl]cyclopropyl}benzamide] |
| 0.0652 | 20 | 33 | 305 | < 10 | C=CC(=O)N[C@@H]1CCN(c2n[nH]c3nccc(-c4ccc(CNC(=O)c5noc(C(C)(C)C)n5)c(F)c4)c23)C1 [Example 102, 5-tert-butyl-N-[(2-fluoro-4-{3-[(3R)-3-(prop-2-enamido)pyrrolidin-1-yl]-1H-pyrazolo[3,4-b]pyridin-4-yl}phenyl)methyl]-1,2,4-oxadiazole-3-carboxamide] |

— patent US20180194762A1 (Pharmacyclics LLC, priority 2017, published 2018)
